According to BindingDB's records for patent US11440904 (2022):

Biological target: Tyrosine-protein kinase BTK (Homo sapiens, UniProt Q06187)
Sequence (Q06187 whole entry): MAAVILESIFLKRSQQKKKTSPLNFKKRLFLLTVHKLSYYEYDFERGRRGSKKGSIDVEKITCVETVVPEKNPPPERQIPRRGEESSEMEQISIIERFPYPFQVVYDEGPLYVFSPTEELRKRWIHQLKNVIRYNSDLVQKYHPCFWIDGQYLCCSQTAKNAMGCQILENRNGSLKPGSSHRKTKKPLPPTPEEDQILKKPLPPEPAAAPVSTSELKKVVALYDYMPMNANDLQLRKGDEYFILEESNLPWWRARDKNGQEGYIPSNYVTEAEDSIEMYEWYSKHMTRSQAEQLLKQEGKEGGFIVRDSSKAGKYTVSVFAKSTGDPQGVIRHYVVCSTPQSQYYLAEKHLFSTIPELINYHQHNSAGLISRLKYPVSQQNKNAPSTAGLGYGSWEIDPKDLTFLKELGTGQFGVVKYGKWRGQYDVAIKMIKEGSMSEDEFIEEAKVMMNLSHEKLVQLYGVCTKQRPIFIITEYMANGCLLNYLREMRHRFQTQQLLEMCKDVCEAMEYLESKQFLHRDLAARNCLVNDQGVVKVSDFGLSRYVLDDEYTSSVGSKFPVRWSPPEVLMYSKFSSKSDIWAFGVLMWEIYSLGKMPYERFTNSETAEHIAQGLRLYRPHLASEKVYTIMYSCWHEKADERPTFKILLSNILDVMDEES

- IC50: > 100 nM
Compound: C=CC(=O)Nc1ccccc1Nc1nc(Nc2ccc(OCCCOC3(CC)OCC(C)(C)CO3)cc2)ncc1F [US11440904, Compound 9]
